Values quoted from earlier work in US8881894B2, “Multiple-compartment applicator” (Sonovia Holdings LLC, priority 2008, dated 2014).

Conditions: in water

pK of acid-ionizable hydrogen: 4.2
SMILES: O=C1O[C@H]([C@@H](O)CO)C(O)=C1O [L-Ascorbic acid]
